Residues, ends and D or L forms follow the SMILES beside them. *: point of attachment. Cbz = O=C(OCc1ccccc1)*; CH2F = FC*
How the values were obtained:
Type in all cases: cell-based
granulocytes [1] = experiment: Granulocyte survival in culture: analysis of hypodiploid nuclei by flow cytometry (propidium iodide); settings: Figure 6; for IC50: isolated granulocytes cultured at 37°C, nuclear hypodiploidy, propidium iodide stain via flow cytometry, read-out: IC50 (effects on granulocyte survival)
Procedure: Whole blood anticoagulated with Acid Citrate Dextrose (ACD) with a ratio of 1:5 ACD to blood was collected (~100 ml).
Using polypropylene plastic ware, neutrophils are isolated as follows: 30 ml of the whole blood is added to 50 ml polypropylene centrifuge tubes containing 15 ml of 6% Dextran (in Saline). The blood is allowed to sediment for approximately 1 hour at room temperature.
The turbid straw colored layer harvested from the top of the cylinders into 50 ml conical polypropylene tubes. The blood cells were pelleted by centrifugation at 240 xg (Sorvall centrifuge at 1200 rpm) for 12 min. at 4°C with the brake on low.
The supernatant was aspirated and the pooled pellet resuspended in 40-50 ml cold PBS (w/o Ca, Mg), and centrifuged at 240 xg (Sorvall centrifuge at 1200 rpm) for 6 min. at 4°C with the brake on high.
The supernatant was aspirated and the pellet resuspended in 12 ml of cold cell culture grade water. The suspension was titriated gently with a pipet for 30 seconds then add 4 ml of cold 0.6 M KCl. (Brought up to 50 ml with cold PBS (w/o Ca, Mg)) and then centrifuged at 300 xg (Sorvall centrifuge at 1400 rpm) for 6 min. at 4°C with the brake on high.
The above was repeated one time.
The supernatant was aspirated and the cells resuspended in 2.5 ml cold PBS (w/o Ca, Mg). The cell suspension was layered over 3 ml Ficoll-Hypaque in a 15 ml polypropylene conical tube and centrifuged at 400 xg (Sorvall centrifuge at 1900 rpm) for 30 min. at 4°C with the brake on low.
The suspension aspirated was down to the neutrophil pellet. […]
The supernatant was aspirated and the neutrophil pellet resuspended in 4.0 ml cold PBS (w/o Ca, Mg) on ice. 10 µl of the neutrophil cell suspension was diluted with 990 µl of Trypan blue (1:100) and cells counted using a hemacytometer. The cell number and viability were determined. […]
• (50 µg/ml propidium iodide (Sigma catalog#P4170); 0.1% Triton X-100; and 0.1% sodium citrate). • Neutrophils were pelleted at 4°C and the supernate aspirated. • Neutrophils were resuspended in hypotonic fluorochrome solution at a density of 5x10^6 cells/ml. Propidium iodide fluorescence of individual nuclei was evaluated in FL2 and measured on a logarithmic scale while gating on physical parameters in forward and side scatter to exlude cell debris.
At least 10,000 events per sample were collected and the results were evaluated relative to a non-apoptotic neutrophil population. […]
The present invention provides methods to enhance the ex vivo survival of neutrophils/granulocytes. […] The presence of hypodiploid DNA is a measure of apoptosis, and is assessed using a propidium iodide stain via flow cytometry. […]

granulocytes [2] = experiment: Respiratory burst in isolated neutrophils measured by chemiluminescence (opsonized zymosan, lucigenin); settings: Figure 7
Procedure: Whole blood anticoagulated with Acid Citrate Dextrose (ACD) with a ratio of 1:5 ACD to blood was collected (150 ml). Neutrophils were isolated as described above.
Opsonized zymosan was prepared by suspending 125 mg zymosan particles in 25 ml pooled human serum (5 mg/ml) and incubating them for 20 minutes at 37°C. Centrifuge the suspension and resuspend the particles in 7 ml of PBS (18 mg/ml) and stored on ice until use (vortex prior to pipetting).
50 ml of a 250 µM solution of Lucigenin (MW 510.5) was prepared by dissolving 6.4 mg of the solid in 50 ml of PBS-G (+ Ca, Mg). 10 µl of PBS-G (+ Ca, Mg) to the wells in a white 96 well plate.
50 µl of the 250 µM Lucigenin solution was added to the wells in a white 96 well plate.
Cell preparations were obatined from cell culture (concentration at time zero= 5.0 x 10^6 cells/ml) with PBS-G (+ Ca, Mg).
20 µl of the neutrophil suspension was suspended to the appropriate wells and the plate was incubated the plate at 37° C for three minutes. 10 µl of the opsonized zymosan was added to the wells.
The plate was read on the luminometer (Labsystems Luminoskan, Needham Heights, MA) for 14 min. at 37° C in the kinetic mode and record results using the software DeltaSoft.
The ability to undergo the respiratory burst is another measure of granulocyte viability. The respiratory burst is a physiological response of granulocytes to foreign stimuli such as bacteria. In this example, the method for inducing the respiratory burst utilized opsonized bacterial zymosan. The respiratory burst was measured via chemiluminescence.

[3] = tested on: granulocytes in whole blood; experiment: Whole blood assay: survival of granulocytes by hypodiploid analysis via flow cytometry
Procedure: The following reagents were used: • anti-CD32-FITC monoclonal antibody obtained from Pharmingen. • Lysing Solution (10X Stock: 89.9 g NH4Cl; • 10.0 g KHCO; • 0.37 g tetrasodium EDTA; • dissolve in 1 liter dH2O. Adjust to pH 7.3. Store at 4°C in a tightly closed bottle. • Dilute 1:10 with dH2O prior to use.) • (DPBS without calcium or magnesium obtained from Irivine Scientific. • 2% fetal bovine serum in DPBS stored at 4°C. • 50 µg/ml propidium iodide in DPBS sterile filtered and stored at 4°C.)
The following protocol was followed: • 200 µl blood sample/2.8 ml 1X lysis solution in a 15 ml polypropylene conical tube. • Cap and invert to mix. Leave at room temperature for 3-5 minutes. • Centrifuge in a table-top Sorvall at 1200 rpm for 5 minutes at 4°C. • Aspirate supernate. Resuspend pellet in 200 µl/sample 2% FBS/DPBS. Add 20 µl/sample anti-CD32-FITC. Incubate 30 minutes on ice in the dark. • Add 5 ml/sample DPBS. Centrifuge at 1000 rpm for 5 minutes at 4°C. • Aspirate supemate. Resuspend pellet in 1 ml/sample 2% FBS/DPBS. • Add 3 ml/sample ice-cold 95% EtOH dropwise while vortexing gently. • Incubate samples on ice in the dark for 30 minutes. • Centrifuge at 1000 rpm for 5 minutes at 4°C. • Resuspend each sample in 50 µl 5 mg/ml RN'ase. Transfer sample to 900 µl/sample • 50 µg/ml Propidium Iodide in 12x75 mm Falcon polystyrene tubes. • Incubate on ice for 30 minutes. • Analyze samples by flow cytometry (argon laser) for forward and side scatter and fluorescence.
Survival of granulocytes in whole blood was measured by hypodiploid analysis in a similar fashion to isolated granulocytes via flow cytometry. ICE/ced-3 inhibitors of the present invention maintained survival of granulocytes in whole blood for 96 hours at room temperature as indicated in the table below: Percentage of diploid granulocytes in whole blood

[4] = after granulocyte culture for 72 hours
[5] = granulocyte culture for 48 hours

SMILES | effect on improving granulocyte survival (granulocytes [1]; isolated granulocytes in culture, at 48 hours) | respiratory burst (granulocytes [2]; no time stated) | IC50 (granulocytes [1]) [µM] | respiratory burst (granulocytes [2]; [4]) | respiratory burst (granulocytes [2]; [5]) | Percentage of diploid granulocytes in whole blood ([3]; 96 hours at room temperature) [%] | Percentage of diploid granulocytes in whole blood ([3]; time zero, 0 min) [%]
COC(=O)C[C@H](NC(=O)[C@H](C)NC(=O)[C@@H](NC(=O)OCc1ccccc1)C(C)C)C(=O)CF [zVADfmk, reference compound] (Cbz-Val-Ala-Asp(OMe)-CH2F) | weak effect | did not maintain the respiratory burst |  |  |  |  | 
O=C(O)CC(NC(=O)[C@@H]1Cc2cccc3c2N1C(=O)[C@@H](NC(=O)OCc1ccccc1)CC3)C(=O)CF (relative stereo) [Example 106] |  |  | < 5 |  |  |  | 
Cc1c(C(=O)N[C@H](C(=O)NC(CC(=O)O)C(=O)CF)C(C)C)n(C)c2ccccc12 (stereo partly shown) [Example 43, N-[(1,3-Dimethylindole-2-Carbonyl)Valinyl]-3-Amino-4-Oxo-5-Fluoropentanoic Acid] |  |  | < 5 | partially maintained | substantially maintained | 91 | 96
Cc1c(C(=O)N[C@H](C(=O)NC(CC(=O)O)C(=O)COC(=O)c2c(Cl)cccc2Cl)C(C)C)n(C)c2ccccc12 (stereo partly shown) [Example 70, N-[N-(1,3-Dimethyl-indole-2-carbonyl)-Valinyl]-3-amino-5-(2,6-dichlorobenzoyl)oxy-4-oxo-pentanoic acid] |  |  | < 5 | partially maintained | substantially maintained | 89 | 96

Reference: patent EP1647279A2, “Inhibition of apoptosis using interleukin-1beta-converting enzyme (ICE)/CED-3 family inhibitors” (priority 1996, dated 1998)
